The source of these data is patent publication US11479592B2, “Erythropoietin-derived peptide, preparation method and use thereof” (Zhongshan Hospital, Fudan University, priority 2017, dated 2022).

Data set [1] deals with red blood cells. Briefly: Hematopoietic experiment: red blood cell counts after daily intraperitoneal injection. It is filed as in vivo, C57/BL6 mice. The settings on record: for RBC generation (erythrocyte counts): tail vein blood; for red blood cell counts compared with the other groups (Saline, ACN+Milliq): as the number of administrations increases. Here is the method:
18-22 g of male C57/BL6 mice (purchased from Shanghai SIPPR-BK Laboratory Animal Co., Ltd., 50 mice in total and 10 mice for each group) were used. The five groups were injected intraperitoneally with EPO (50 μg/kg), EPO-derived peptide of the present invention (50 μg/kg), EPO-derived peptide of the present invention (250 μg/kg), physiological saline (0.1 m/mouse), and solvent (ACN+Milliq, 0.1 m/mouse) once a day, respectively. On the 3th, 7th, and 13th days, the blood samples were collected from the tail vein and measured by a ProCyte Dx automatic blood cell analyzer to obtain the numbers of red blood cells thereof.

Data set [2] has as its system fetal rat cortical neurons. Put plainly: Oxygen-glucose deprivation (OGD)-induced damage to neurons, MTT cell survival and LDH release. The conditions noted are these: 3 h hypoxia (1% oxygen), then 4 h with EPO 5, 100 μg/ml or T3 5, 50, 100 μg/ml. It is filed as cell-based. Here is the method:
According to the methods from literatures, the fetal rat cortical neurons were cultured in the serum-free culture medium of Neurobasal® Medium (purchased from the market). After incubation in a 5% CO2 incubator for 7-14 days, the neurons were specifically labeled: microtubule-associated protein-2 (MAP-2) was stained and identified, and the nuclei were labeled with the fluorescent dye of 4, 6-diamidino-2-phenylindole (DAPI).
The fetal rat cortical neurons of primary culture were cultured in a sugar-free DMED culture medium. After being placed in the hypoxic incubator to damage neurons for 3 h, the culture medium were replaced with serum-free culture medium. EPO, the novel EPO-derived peptide (T3) and the culture medium were added to different groups respectively, and the groups were cultured in a 5% CO2 normal oxygen incubator for 4 h. Then the LDH release rate and MTT cell survival rate of each group were measured.
1. Selecting well-grown neurons cultured for 7-14 days, aspirating the old culture medium of neurons, washing 3 times with PBS buffer, and then adding sugar-free DMEM:
2. Placing the culture plates in an anoxic incubator at 37° C., and setting the oxygen concentration therein as 1%.
3. Removing the culture plates after 3 h of hypoxia, aspirating the sugar-free medium, replacing it with the original serum-free maintenance medium, adding EPO (5 μg/ml, 100 μg/ml), the EPO-derived peptide of the present invention (5 μg/ml, 50 μg/ml, 100 μg/ml), and the culture medium respectively, and placing in an 5% CO2 incubator with 95% air at 37° C. for 4 h.
4. After 4 h, measuring the cell survival rate (MTT kit, Beyotime Biotechnology Co., Ltd.) and LDH lactic dehydrogenase release rate (LDH kit, Promega Corporation) of the cells in each group.

The nature of data set [3]: Blood-brain barrier penetration experiment: biotin in cerebrospinal fluid. The conditions noted are these: mice, biotin detected in cerebrospinal fluid. The class given is in vivo, mouse. Here is the method: The biotin-labeled novel EPO-derived peptide was injected intraperitoneally. 5-15 μl of mouse cerebrospinal fluid was taken under general anesthesia 1 h after administration. The biotin assay kit was used to detect whether the biotin-labeled novel EPO-derived peptide entered the cerebrospinal fluid across the blood-brain barrier.
1. Anesthetizing the mouse with 4% chloral hydrate;
2. Wiping the nape of the neck with wet gauze, and cutting off the dorsal set to expose the skin; making a sagittal incision in the skin below the occipital bone, and separating the skin from both sides to expand the visual field;
3. Letting the mouse prone, placing the body at an angle of 135° to the head and fixing the head on the stereotactic instrument; bluntly separating the subcutaneous tissue and muscle along the midline under the stereo microscope; at this angle, the dura mater and spinal cord can be clearly seen in the incision below the occipital bone (The main features are a clear white appearance, a cyclical pulsation of the spinal cord blood vessels and an adjacent cerebrospinal fluid area);
4. Setting the heat value as 300 and the pressure value as 330 in the needle puller, pulling the capillary glass tube into a pointed capillary tube, and trimming the tip of the pointed capillary tube with scissors to make the blunt tip have a diameter of 0.5 mm;
5. […]

In data set [4] the test system is fetal rat cortical neurons. Briefly: NMDA-induced damage to neurons, MTT cell survival and LDH release. The class given is cell-based. The conditions noted are these: NMDA 250 μmol/L, 60 min; EPO 5 μg/ml, T3 100 μg/ml. Here is the method: Based on the above results, the primary cortical neurons were administered with 250 μmol/L NMDA.
1. Selecting well-grown neurons cultured for 7-14 days, and adding EPO (5 μg/ml), the EPO-derived peptide of the present invention (100 μg/ml) respectively;
2. Adding NMDA to achieve a final concentration of 250 μmol/L, and culturing in an incubator at 37° C. for 60 min;
3. Discarding the culture medium, and measuring the cell survival rate (MTT kit, Beyotime Biotechnology Co., Ltd.) and LDH lactic dehydrogenase release rate (LDH kit, Promega Corporation) of the cells in each group.
In general terms: Release of lactate dehydrogenase indicates damage to the cell membrane.

Data set [5] concerns mouse model of transient middle cerebral artery occlusion. Briefly: Mouse model of transient middle cerebral artery occlusion: neurobehavioral scores, cerebral infarction volume. It is filed as in vivo, ICR mice. The settings on record: for cerebral infarction volume versus control group / neurobehavioral scores versus control group: EPO 50 μg/kg, T3 500 μg/kg at reperfusion; for Neurobehavioral scores / Cerebral infarction volumes: third day after surgery; for Neurobehavioral scores: 60 min ischemia then reperfusion; for Cerebral infarction volumes: cresyl violet sections. Here is the method:
ICR mice (male, 25-30 g, 18 mice, purchased from Shanghai Slac Laboratory Animal Co., Ltd.) were divided into control group (ACN+Millq, 0.2 ml/mouse), EPO group (50 μg/kg), novel EPO-derived peptide group (T3, 500 μg/kg), 6 mice/group. Mice in each group were operated with suture-occluded method in mice to establish middle cerebral artery occlusion model, the mice were anesthetized by intraperitoneal injection of ketamine hydrochloride and fixed on the operating table. After 60 min of ischemia, the sutures were removed to reperfuse, and the solvents (ACN+Milliq), EPO, and T3 were administered separately. Neurobehavioral scores were measured on the third day after surgery, and then the mice were sacrificed to reperfuse and the brains were harvested to make sections stained with cresyl violet. The results were shown in FIG. 7A, FIG. 7B and FIG. 7C.
1. Disinfecting the neck, making an incision at the center of the neck, exposing the left common carotid artery with a microsurgical forceps under a stereo microscope, separating the internal carotid artery, external carotid artery and pterygopalatine artery, ligating the common carotid artery and internal carotid artery; making two knots on the external carotid artery with two filaments, wherein one at the distal part of the external carotid artery is a dead knot, and one at the proximal part of the external carotid artery is a slipknot;
2. Making a small incision on the external carotid artery with venus scissors, having about half the size of the blood vessel;
3. Cutting the external carotid artery, and carefully reversely inserting the suture from the external carotid artery into the bifurcation of the external carotid artery and internal carotid artery, then loosening the knot on the internal carotid artery, inserting the suture into the internal carotid artery until it encounters a slight resistance, that is, the origin of the middle cerebral artery, and putting the mouse back into the cage.
4. Anesthetizing and fixing again after 60 min of cerebral ischemia, and re-exposing the common carotid artery, internal carotid artery and suture parts under a stereo microscope;
5. Loosening the filament ligated to the proximal part of the external carotid artery for fixing the suture with the microsurgical forceps, slowly withdrawing the suture, and ligating the stump of the external carotid artery, loosening the filament ligated to the common carotid artery to achieve reperfusion;
6. Suturing the incision of the neck, disinfecting the area, and putting the mouse back in the cage for observation.

Data set [6] has as its system pilocarpine-induced seizures. Briefly: Pilocarpine-induced epilepsy model: seizure latency. It is filed as in vivo, C57/BL6 mice. The conditions noted are these: for seizure latency / seizure latency versus saline and solvent groups: EPO 50 μg/kg; for seizure latency: T3 500 μg/kg i.p. 1 day, 4 h, 2 h before pilocarpine 350 mg/kg; for seizure latency versus saline and solvent groups: T3 500 μg/kg, difference statistically significant. Here is the method:
C57/BL6 mice (male, 20-25 g, 24 mice, purchased from Shanghai JieSiJie Laboratory Animal Co., Ltd) were divided into physiological saline group (Saline, 0.2 ml/mouse), solvent group (ACN+Milliq, 0.2 ml/mouse), EPO group (50 μg/kg), novel EPO-derived peptide group (T3, 500 μg/kg), 6 mice each group. The drugs were administered 1 day, 4 h, and 2 h before pilocarpine-induced epilepsy, and the seizure latency and severity of seizures were recorded.
1. Intraperitoneally administering the mice 1 day, 4 h, 2 h prior to the injection of pilocarpine;
2. Intraperitoneally injecting scopolamine (1 mg/kg) 30 min in advance to reduce the peripheral cholinergic response induced by pilocarpine;
3. Intraperitoneally injecting pilocarpine (350 mg/kg), recording the time of administration, time of onset, severity of seizure;
Behavioral grading of epilepsy continuing status using the Racine scale:
Grade I: staring, mouth and facial movements;
Grade II: nodding, single jerks;
Grade III: unilateral/bilateral forelimb clonus
Grade V: loss of posture, jumping repeatedly, falling, tonic clonic seizure.

Where [7] appears, read: 50 ug/kg i.p. once a day, 3th day.
The mark [8] stands for this setting: 50 ug/kg i.p. once a day, 7th day.
Where [9] appears, read: 50 ug/kg i.p. once a day, 13th day.

Numbered stars: 1 amine (or outer) side, 2 acyl side, 3 side chain; on linkers, the order of the positions; unused ones are H or OH. Square brackets hold non-standard residues; d marks the D form. Peptide text beside a SMILES is read from it. * marks the point of attachment. X1 = O=C1NC2CSC(CCCCC(=O)*)C2N1; X2 = CC(O)CC(N[*:1])C(=O)[*:2]; Abu = CC[CH](N)C(=O)O

As for `CCC(NC(=O)C(CC(C)C)NC(=O)CNC(=O)C(CO)NC(=O)C(NC(=O)C(C)NC(=O)C(CC(=O)O)NC(=O)C(NC(=O)C(Cc1cnc[nH]1)NC(=O)C(CC(C)C)NC(=O)C(CCC(N)=O)NC(=O)C(CC(C)C)NC(=O)C1CCCN1C(=O)C(CO)NC(=O)C(CO)NC(=O)C(CC(N)=O)NC(=O)C(NC(=O)C(CC(C)C)NC(=O)C(CC(C)C)NC(=O)C(C)NC(=O)C(CCC(N)=O)NC(=O)CNC(=O)C(CCCNC(=N)N)NC(=O)C(CC(C)C)NC(=O)C(NC(=O)C(C)NC(=O)C(CCC(=O)O)NC(=O)C(CO)NC(=O)CCCCC1SCC2NC(=O)NC21)C(C)C)C(C)C)C(C)C)C(C)C)C(=O)NC(CO)C(=O)NC(CC(C)O)C(=O)NC(C(=O)NC(C(=O)NC(CC(C)C)C(=O)NC(CC(C)C)C(=O)NC(CCCNC(=N)N)C(=O)NC(C)C(=O)NC(CC(C)C)C(=O)O)C(C)O)C(C)O` (stereo not drawn) [T3] (X1-SEAVLRGQALLVNSSPLQLHVDAVSGL[Abu]S[X2]TTLLRAL-OH; configuration not given here), the “RBC generation (erythrocyte counts)” value was found to be 9.29 ± 0.13 M/μL in data set [1] (setting [7]); 8.75 ± 0.36 M/μL in data set [1] (setting [8]); 6.77 ± 0.18 M/μL in data set [1] (setting [9]); 8.16 ± 0.28 M/μL in data set [1] (250 ug/kg i.p. once a day, 3th day); 9.56 ± 0.54 M/μL in data set [1] (250 ug/kg i.p. once a day, 7th day); 6.52 ± 0.12 M/μL in data set [1] (250 ug/kg i.p. once a day, 13th day). Further, the “red blood cell counts compared with the other groups (Saline, ACN+Milliq)” value in data set [1] is recorded as “no significant increase”. For the same compound, the “LDH release rate versus control group” value in data set [2] and in data set [4] was “lower than that in the control group” in each case. Moreover, the “cell survival rate (MTT) versus control group” value in data set [2] and in data set [4] was “higher than that in the control group” in each case. Further, the blood-brain barrier penetration entry in data set [3] was “could enter the cerebrospinal fluid across the blood-brain barrier”. Further, in data set [5], the “cerebral infarction volume versus control group” value is on record as “lower than those of the control group”. Besides, in data set [5], the “neurobehavioral scores versus control group” value is “lower than those of the control group”. Moreover, the Neurobehavioral scores in data set [5] (column head: Ctrl + T3 group) worked out at 6.3 ± 0.7; in data set [5] (column head:), 5.7 ± 0.3. For the same compound, the Cerebral infarction volumes is recorded as 40.54 ± 5.78 mm^3 in data set [5] (column head: ctrl + T3 group) and 37.72 ± 9.20 mm^3 in data set [5] (column head:). The same compound gave a seizure latency in data set [6] of 40.58 ± 3.67 min. The “seizure latency versus saline and solvent groups” value in data set [6] was “longer than those of the physiological saline group and the solvent group”. In addition, in data set [6] (animals with nerve damage (epilepsy model), summary statement), the “loss of neurons in the hippocampus” value is on record as “reduce the loss of neurons in the hippocampus”.
For the compound Erythropoietin [EPO], in data set [1] (setting [7]), the “RBC generation (erythrocyte counts)” value came to 9.14 ± 0.56 M/μL. Also, in data set [1] (setting [8]), the “RBC generation (erythrocyte counts)” value is 12.79 ± 0.24 M/μL. For the same compound, the “RBC generation (erythrocyte counts)” value in data set [1] (setting [9]) stood at 11.15 ± 0.23 M/μL. Further, the “red blood cell counts compared with the other groups (Saline, ACN+Milliq)” value in data set [1] is listed as “significantly higher than that of other groups”. Also, in data set [2], the “LDH release rate versus control group” value is “lower than that in the control group” and the “cell survival rate (MTT) versus control group” value is given as “higher than that in the control group”. In data set [4], the “LDH release rate versus control group” value was “lower than that in the control group” and the “cell survival rate (MTT) versus control group” value was “higher than that in the control group”. Also, in data set [5], the “cerebral infarction volume versus control group” value is “lower than those of the control group” and the “neurobehavioral scores versus control group” value is on record as “lower than those of the control group”. Besides, in data set [6], the seizure latency was found to be 41.16 ± 3.52 min; the “seizure latency versus saline and solvent groups” value was “longer than those of the physiological saline group and the solvent group”.
